From ChEMBL document CHEMBL5291721, “A preclinical secondary pharmacology resource illuminates target-adverse drug reaction associations of marketed drugs” (Nat Commun, 2023) come the findings set out here.

A word on the AC50: it is the midpoint of the concentration-response curve, whichever way the signal moves.

Experiment [1] concerns the target Acetylcholinesterase (Homo sapiens, UniProt P22303). The format is functional.
The target in experiment [2] is T1, Alpha-2A adrenergic receptor (Homo sapiens, UniProt P08913).
T1 sequence (P08913 whole entry): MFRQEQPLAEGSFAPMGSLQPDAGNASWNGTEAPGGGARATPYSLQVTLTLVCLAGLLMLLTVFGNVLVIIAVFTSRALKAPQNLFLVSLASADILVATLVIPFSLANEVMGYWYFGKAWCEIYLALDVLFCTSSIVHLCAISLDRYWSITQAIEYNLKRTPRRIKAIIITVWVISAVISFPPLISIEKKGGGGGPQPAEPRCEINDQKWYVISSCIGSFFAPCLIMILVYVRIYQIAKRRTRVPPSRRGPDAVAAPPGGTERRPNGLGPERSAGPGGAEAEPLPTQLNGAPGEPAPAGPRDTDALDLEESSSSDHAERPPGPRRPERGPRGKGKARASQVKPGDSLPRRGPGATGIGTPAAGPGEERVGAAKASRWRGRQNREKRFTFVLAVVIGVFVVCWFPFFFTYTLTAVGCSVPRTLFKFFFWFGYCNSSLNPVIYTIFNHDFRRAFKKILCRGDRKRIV

Experiment [3] concerns the target T2, Muscarinic acetylcholine receptor M2 (Homo sapiens, UniProt P08172).
T2 sequence (P08172 whole entry): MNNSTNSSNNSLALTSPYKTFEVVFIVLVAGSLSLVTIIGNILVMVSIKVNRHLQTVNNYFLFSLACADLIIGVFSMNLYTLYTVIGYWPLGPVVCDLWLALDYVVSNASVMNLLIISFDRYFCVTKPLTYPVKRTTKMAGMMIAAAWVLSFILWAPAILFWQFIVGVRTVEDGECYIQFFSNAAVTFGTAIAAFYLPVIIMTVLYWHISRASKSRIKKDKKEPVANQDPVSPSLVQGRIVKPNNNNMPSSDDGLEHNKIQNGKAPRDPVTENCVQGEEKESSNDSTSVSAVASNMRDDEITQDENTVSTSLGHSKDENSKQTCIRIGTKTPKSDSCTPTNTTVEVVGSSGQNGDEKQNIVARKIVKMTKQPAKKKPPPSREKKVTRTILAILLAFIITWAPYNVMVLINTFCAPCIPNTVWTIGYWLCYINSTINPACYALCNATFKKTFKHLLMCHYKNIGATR

Experiment [4] deals with D(1A) dopamine receptor (Homo sapiens, UniProt P21728).
Experiment [5] addresses D(3) dopamine receptor (Homo sapiens, UniProt P35462).
Experiment [6] concerns the target Prothrombin (Homo sapiens, UniProt P00734). Type of experiment: functional.
The target of experiment [7] is Histamine H3 receptor (Homo sapiens, UniProt Q9Y5N1).
Experiment [8] addresses T3, 5-hydroxytryptamine receptor 1A (Homo sapiens, UniProt P08908).
T3 sequence (P08908 whole entry): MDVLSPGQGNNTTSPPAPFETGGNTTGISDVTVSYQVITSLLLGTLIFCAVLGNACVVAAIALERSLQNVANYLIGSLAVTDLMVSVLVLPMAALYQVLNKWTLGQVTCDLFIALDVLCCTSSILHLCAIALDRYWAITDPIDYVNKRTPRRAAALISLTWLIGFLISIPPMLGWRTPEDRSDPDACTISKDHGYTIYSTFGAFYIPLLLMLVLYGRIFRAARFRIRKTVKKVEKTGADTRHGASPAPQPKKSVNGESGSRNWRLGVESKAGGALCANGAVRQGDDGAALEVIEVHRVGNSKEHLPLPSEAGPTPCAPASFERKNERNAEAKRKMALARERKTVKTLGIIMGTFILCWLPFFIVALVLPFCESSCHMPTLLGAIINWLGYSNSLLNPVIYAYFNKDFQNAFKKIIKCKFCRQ

Experiment [9] deals with 5-hydroxytryptamine receptor 2B (Homo sapiens, UniProt P41595). Type of experiment: functional, cell-based.
In experiment [10] the target is Voltage-gated inwardly rectifying potassium channel KCNH2 (Homo sapiens, UniProt Q12809). Type of experiment: functional. Conditions: read-out: AC50.
Experiment [11] deals with Mu-type opioid receptor (Homo sapiens, UniProt P35372).
In experiment [12] the target is cGMP-inhibited 3',5'-cyclic phosphodiesterase 3A (Homo sapiens, UniProt Q14432). Type of experiment: functional.
For experiment [13], the target named is 3',5'-cyclic-AMP phosphodiesterase 4A (Homo sapiens, UniProt P27815). Type of experiment: functional.
The target of experiment [14] is T4, Prostaglandin G/H synthase 1 (Homo sapiens, UniProt P23219). The format is functional.
Experiment [15] deals with T4, Prostaglandin G/H synthase 1. Type of experiment: functional. This is another data set of the same source.
Experiment [16] has as its target Sodium-dependent noradrenaline transporter (Homo sapiens, UniProt P23975).
The target of experiment [17] is Sodium-dependent dopamine transporter (Homo sapiens, UniProt Q01959).
In experiment [18] the target is T5, Thromboxane A2 receptor (Homo sapiens, UniProt P21731).
T5 sequence (P21731 whole entry): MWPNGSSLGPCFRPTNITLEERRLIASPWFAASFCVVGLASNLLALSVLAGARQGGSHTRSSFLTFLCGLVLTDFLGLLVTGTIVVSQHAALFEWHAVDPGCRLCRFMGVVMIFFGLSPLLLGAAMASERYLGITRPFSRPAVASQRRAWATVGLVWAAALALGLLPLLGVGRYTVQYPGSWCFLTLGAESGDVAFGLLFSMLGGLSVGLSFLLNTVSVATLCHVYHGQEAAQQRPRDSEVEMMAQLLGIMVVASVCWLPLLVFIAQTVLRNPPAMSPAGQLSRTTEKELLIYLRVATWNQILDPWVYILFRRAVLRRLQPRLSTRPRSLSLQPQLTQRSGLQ
The format is functional, cell-based.

Experiment [19] deals with T5, Thromboxane A2 receptor. The format is functional, cell-based. This is another data set of the same source.
Also: assay procedure not described here.

Sequence of D(3) dopamine receptor (P35462 whole entry): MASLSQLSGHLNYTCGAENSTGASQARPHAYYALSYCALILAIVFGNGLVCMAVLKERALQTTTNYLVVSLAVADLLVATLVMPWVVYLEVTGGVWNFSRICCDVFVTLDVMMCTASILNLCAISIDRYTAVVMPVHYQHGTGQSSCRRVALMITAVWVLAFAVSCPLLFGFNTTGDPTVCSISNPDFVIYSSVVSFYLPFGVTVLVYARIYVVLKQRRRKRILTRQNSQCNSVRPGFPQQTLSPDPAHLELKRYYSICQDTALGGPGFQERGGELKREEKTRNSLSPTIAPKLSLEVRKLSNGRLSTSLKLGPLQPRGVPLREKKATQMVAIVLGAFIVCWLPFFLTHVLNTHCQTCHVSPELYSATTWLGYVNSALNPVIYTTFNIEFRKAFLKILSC
Sequence of Sodium-dependent dopamine transporter (Q01959 whole entry): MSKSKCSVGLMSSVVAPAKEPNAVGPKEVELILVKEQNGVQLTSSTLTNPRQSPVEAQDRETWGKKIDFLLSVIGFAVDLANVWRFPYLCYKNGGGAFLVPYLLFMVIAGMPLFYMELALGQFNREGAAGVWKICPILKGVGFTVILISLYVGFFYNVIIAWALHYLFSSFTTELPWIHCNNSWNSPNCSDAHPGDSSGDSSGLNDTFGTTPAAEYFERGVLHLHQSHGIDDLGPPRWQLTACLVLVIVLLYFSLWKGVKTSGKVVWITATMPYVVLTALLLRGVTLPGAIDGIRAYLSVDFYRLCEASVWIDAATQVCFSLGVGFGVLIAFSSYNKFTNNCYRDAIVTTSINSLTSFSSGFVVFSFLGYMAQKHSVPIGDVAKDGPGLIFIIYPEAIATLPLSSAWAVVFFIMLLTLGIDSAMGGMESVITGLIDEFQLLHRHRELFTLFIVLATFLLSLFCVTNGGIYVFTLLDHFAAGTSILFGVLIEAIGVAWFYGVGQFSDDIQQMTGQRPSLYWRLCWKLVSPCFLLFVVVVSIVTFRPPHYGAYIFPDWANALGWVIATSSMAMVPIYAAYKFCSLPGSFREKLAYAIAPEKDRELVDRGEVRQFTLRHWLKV
Sequence of D(1A) dopamine receptor (P21728 whole entry): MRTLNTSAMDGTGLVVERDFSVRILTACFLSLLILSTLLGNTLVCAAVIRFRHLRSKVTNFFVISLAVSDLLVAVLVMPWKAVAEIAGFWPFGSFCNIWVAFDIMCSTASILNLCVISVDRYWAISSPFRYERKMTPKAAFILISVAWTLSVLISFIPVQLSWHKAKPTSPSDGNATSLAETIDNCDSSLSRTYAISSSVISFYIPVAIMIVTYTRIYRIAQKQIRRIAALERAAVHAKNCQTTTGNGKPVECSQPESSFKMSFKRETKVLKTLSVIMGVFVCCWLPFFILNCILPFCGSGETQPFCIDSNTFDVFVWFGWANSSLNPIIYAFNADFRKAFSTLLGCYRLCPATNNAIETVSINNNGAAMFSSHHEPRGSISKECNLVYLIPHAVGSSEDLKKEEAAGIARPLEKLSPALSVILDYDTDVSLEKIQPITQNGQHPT
Sequence of 5-hydroxytryptamine receptor 2B (P41595 whole entry): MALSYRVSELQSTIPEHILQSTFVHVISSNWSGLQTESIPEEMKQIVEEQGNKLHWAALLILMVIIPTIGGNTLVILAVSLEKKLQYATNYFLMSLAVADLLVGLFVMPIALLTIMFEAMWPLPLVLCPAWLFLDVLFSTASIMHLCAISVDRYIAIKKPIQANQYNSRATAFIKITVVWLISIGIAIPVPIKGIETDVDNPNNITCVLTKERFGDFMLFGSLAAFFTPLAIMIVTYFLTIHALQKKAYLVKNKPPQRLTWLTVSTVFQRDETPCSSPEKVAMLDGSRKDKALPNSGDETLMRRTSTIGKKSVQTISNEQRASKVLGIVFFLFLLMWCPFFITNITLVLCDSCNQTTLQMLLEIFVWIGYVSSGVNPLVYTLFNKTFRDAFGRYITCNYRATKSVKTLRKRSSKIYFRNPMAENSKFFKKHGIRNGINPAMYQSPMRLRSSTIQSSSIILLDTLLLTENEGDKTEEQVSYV
Sequence of Histamine H3 receptor (Q9Y5N1 whole entry): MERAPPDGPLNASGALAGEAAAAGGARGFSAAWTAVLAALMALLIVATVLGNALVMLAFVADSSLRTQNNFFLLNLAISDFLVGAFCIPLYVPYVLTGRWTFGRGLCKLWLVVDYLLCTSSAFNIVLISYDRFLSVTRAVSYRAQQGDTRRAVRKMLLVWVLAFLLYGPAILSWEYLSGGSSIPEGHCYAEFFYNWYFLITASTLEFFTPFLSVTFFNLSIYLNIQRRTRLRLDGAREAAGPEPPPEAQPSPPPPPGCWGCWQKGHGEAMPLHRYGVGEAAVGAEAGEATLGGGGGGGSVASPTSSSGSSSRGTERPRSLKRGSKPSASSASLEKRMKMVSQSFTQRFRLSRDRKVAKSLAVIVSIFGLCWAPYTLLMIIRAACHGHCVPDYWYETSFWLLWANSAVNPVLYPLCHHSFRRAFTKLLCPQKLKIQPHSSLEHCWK
Sequence of Voltage-gated inwardly rectifying potassium channel KCNH2 (Q12809 whole entry): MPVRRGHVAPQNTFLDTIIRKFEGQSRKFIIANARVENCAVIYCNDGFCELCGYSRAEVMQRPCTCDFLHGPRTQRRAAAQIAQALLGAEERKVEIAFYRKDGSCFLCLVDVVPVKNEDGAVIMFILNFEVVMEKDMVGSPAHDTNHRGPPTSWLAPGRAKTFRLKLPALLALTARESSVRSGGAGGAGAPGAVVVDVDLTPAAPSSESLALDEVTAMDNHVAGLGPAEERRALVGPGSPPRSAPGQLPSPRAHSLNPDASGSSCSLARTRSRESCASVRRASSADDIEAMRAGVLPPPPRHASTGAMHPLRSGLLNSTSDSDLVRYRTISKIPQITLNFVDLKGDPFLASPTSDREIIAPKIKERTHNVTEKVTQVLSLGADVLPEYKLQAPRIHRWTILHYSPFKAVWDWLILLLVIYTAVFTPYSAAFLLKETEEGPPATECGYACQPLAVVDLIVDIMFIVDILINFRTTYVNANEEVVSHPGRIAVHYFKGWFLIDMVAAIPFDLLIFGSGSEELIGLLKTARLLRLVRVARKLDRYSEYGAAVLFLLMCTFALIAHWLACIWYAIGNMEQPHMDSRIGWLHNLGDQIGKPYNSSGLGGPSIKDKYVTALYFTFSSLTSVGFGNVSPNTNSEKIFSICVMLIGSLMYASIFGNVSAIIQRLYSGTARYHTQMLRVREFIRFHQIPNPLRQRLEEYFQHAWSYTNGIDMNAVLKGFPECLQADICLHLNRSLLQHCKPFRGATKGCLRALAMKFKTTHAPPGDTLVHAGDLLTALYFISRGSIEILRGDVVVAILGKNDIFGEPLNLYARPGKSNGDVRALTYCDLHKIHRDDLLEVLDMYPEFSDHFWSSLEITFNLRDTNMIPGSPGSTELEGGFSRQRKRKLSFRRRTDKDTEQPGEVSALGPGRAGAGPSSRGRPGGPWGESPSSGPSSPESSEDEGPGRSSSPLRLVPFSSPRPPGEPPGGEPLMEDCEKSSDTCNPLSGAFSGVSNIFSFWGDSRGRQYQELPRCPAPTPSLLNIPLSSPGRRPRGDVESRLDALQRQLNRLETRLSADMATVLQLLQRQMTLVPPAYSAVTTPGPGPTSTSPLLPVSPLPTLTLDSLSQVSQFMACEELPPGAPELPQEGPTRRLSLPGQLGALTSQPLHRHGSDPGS
Sequence of cGMP-inhibited 3',5'-cyclic phosphodiesterase 3A (Q14432 whole entry): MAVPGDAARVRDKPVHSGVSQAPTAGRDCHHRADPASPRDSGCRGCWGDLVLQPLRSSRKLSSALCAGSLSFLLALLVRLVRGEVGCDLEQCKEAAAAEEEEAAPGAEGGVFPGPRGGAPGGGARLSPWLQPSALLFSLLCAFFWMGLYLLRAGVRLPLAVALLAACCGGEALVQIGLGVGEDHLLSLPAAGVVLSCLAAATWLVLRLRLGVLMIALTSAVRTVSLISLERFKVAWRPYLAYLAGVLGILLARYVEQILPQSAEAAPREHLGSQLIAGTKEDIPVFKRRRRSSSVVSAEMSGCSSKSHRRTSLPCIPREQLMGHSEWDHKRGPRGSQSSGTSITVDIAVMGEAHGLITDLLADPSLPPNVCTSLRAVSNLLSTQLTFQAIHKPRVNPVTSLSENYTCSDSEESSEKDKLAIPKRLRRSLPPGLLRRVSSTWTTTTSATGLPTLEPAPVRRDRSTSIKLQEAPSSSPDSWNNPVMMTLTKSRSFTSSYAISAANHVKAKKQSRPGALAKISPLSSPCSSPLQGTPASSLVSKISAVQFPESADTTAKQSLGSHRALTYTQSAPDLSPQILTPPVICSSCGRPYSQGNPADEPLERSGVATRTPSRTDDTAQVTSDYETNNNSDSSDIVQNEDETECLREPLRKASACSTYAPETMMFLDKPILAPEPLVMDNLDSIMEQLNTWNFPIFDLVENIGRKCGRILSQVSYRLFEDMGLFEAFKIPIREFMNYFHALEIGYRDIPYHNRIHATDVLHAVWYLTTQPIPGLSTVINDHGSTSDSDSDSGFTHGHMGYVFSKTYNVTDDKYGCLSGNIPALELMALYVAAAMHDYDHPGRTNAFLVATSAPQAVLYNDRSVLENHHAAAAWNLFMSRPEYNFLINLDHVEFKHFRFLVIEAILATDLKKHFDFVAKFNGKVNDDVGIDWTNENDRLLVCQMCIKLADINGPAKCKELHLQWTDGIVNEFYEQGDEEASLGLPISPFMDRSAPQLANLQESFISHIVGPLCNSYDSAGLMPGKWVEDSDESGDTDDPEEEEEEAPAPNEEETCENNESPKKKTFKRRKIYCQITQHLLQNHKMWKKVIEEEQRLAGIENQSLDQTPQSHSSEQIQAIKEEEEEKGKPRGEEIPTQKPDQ

As for `COc1nccnc1NS(=O)(=O)c1ccc(N)cc1`, the AC50 in experiment [1], in experiment [2], in experiment [3], in experiment [4], in experiment [5] and in experiment [6] was greater than 30 µM throughout. The AC50 in experiment [7], in experiment [8], in experiment [9], in experiment [10], in [11] and in [12] was greater than 30 µM in each case. The AC50 in [13], in [14], in experiment [15], in experiment [16], in experiment [17] and in experiment [18] was greater than 30 µM throughout. This compound also returned an AC50 in experiment [19] greater than 30 µM.

Consider `NC(=O)c1nc(F)c[nH]c1=O`, for which the AC50 was greater than 30 µM in [1]; greater than 30 µM in experiment [2]; greater than 30 µM in experiment [3]; greater than 30 µM in experiment [4]; greater than 30 µM in experiment [5]; greater than 10 µM in [6]. The AC50 in experiment [7], in [8], in experiment [9], in experiment [10], in [11] and in experiment [12] was greater than 30 µM each time. Also, the AC50 in experiment [13], in experiment [14], in experiment [15], in [16], in experiment [17] and in [18] was greater than 30 µM each time. In experiment [19], this compound displayed an AC50 greater than 30 µM.

As for `CN(C)CCCN1C(=O)c2cc([N+](=O)[O-])ccc2Oc2ccccc21`, the AC50 in [1] is greater than 30 µM; in [2], 28.4 µM; in experiment [3], 20.6 µM; in experiment [4], 26 µM; in experiment [5] it was 15 µM; in experiment [6], greater than 30 µM. For the same compound, the AC50 was greater than 30 µM in [7]; 4.17 µM in experiment [8]; greater than 30 µM in experiment [9]; greater than 30 µM in experiment [10]; greater than 30 µM in experiment [11]; greater than 30 µM in [12]. Further, the AC50 in experiment [13] is greater than 30 µM; in experiment [14], 29.6 µM; in [15] it was greater than 30 µM; in [16], greater than 30 µM; in [17], greater than 30 µM; in experiment [18], greater than 30 µM. In [19], this compound came in with an AC50 greater than 30 µM.

As to `O=S(=O)(O)CCS` [2-MERCAPTOETHANESULFONIC ACID], the AC50 in [1] was greater than 10 µM; in [2] it was greater than 30 µM; in experiment [3], greater than 30 µM; in experiment [4], greater than 30 µM; in experiment [5], greater than 30 µM; in experiment [6], greater than 30 µM. Further, the AC50 in experiment [7], in experiment [8], in experiment [9], in [10], in experiment [11] and in [12] was greater than 30 µM in each case. The AC50 in experiment [13] is 9 µM; in experiment [14] it was 0.486 µM; in [15], 0.78 µM; in experiment [16], greater than 30 µM; in [17] it was greater than 30 µM; in experiment [18], greater than 30 µM. For the same compound, the AC50 in experiment [19] is greater than 30 µM.

With `CN(C)CCN(Cc1ccc(Cl)cc1)c1ccccn1` [CHLOROPYRAMINE], the half-maximal activity concentration (AC50) in experiment [1] is greater than 30 µM; in [2] it was 12.2 µM; in experiment [3] it was 2.88 µM; in [4], 2.23 µM; in [5], 1.35 µM; in experiment [6], greater than 30 µM. Moreover, the AC50 in [7] is greater than 30 µM; in [8], greater than 30 µM; in experiment [9], greater than 30 µM; in [10], 0.54 µM; in experiment [11], 5.22 µM; in experiment [12], greater than 30 µM. The AC50 in experiment [13] is greater than 30 µM; in experiment [14], greater than 30 µM; in [15] it was greater than 30 µM; in [16], 19.4 µM; in experiment [17] it was 0.21 µM; in experiment [18] it was greater than 30 µM. The AC50 in experiment [19] was greater than 30 µM.

For `CN1CCC[C@H]1c1cccnc1` [NICOTINE], the AC50 in experiment [1], in experiment [2], in experiment [3], in [4], in [5] and in [6] was greater than 30 µM throughout. For the same compound, the AC50 in experiment [7], in experiment [8], in experiment [9], in experiment [11], in [12] and in experiment [13] was greater than 30 µM throughout. Besides, the AC50 in experiment [14] is 22 µM; in experiment [15], greater than 30 µM; in [16] it was greater than 30 µM; in experiment [17], greater than 30 µM; in [18] it was greater than 30 µM; in experiment [19], greater than 30 µM.

As for `C#C[C@]1(O)CC[C@H]2[C@@H]3CCC4=C(CCC(=O)C4)[C@H]3CC[C@@]21C` [NORETHYNODREL], the AC50 in experiment [1], in experiment [2], in [3], in experiment [4], in experiment [5] and in experiment [6] was greater than 30 µM throughout. For the same compound, the AC50 was greater than 30 µM in experiment [7]; greater than 30 µM in experiment [8]; greater than 30 µM in [9]; greater than 30 µM in experiment [11]; 23.4 µM in [12]; greater than 30 µM in experiment [13]. Moreover, the AC50 in experiment [14] was 11.8 µM; in experiment [15] it was greater than 30 µM; in [16], greater than 30 µM; in experiment [17] it was greater than 30 µM; in experiment [18], greater than 30 µM; in experiment [19], 24.2 µM.

For `CN(C)C(=O)c1nc(CNC(=O)CN)n(-c2ccc(Cl)cc2C(=O)c2ccccc2Cl)n1` [RILMAZAFONE], the concentration at half-maximal activity (AC50) in experiment [1], in experiment [2], in [3], in [4], in [5] and in experiment [6] was greater than 30 µM throughout. The AC50 in [7], in experiment [8], in experiment [9], in experiment [11], in experiment [12] and in experiment [13] was greater than 30 µM each time. Also, the AC50 in experiment [14] is 13.5 µM; in experiment [15], greater than 30 µM; in [16], greater than 30 µM; in experiment [17], greater than 30 µM; in [18], greater than 30 µM; in [19], greater than 30 µM.
